{"source": "patent US20260207649A1", "about": "“LSD1 INHIBITOR AND PRMT6 INHIBITOR FOR USE IN THE TREATMENT OF A DISEASE ASSOCIATED WITH GAIN-OF-FUNCTION OF ANDROGEN RECEPTOR (AR) AND/OR WITH OVEREXPRESSION OF AN AR COACTIVATOR” (FONDAZIONE TELETHON ETS(30%), priority 2022, published 2026)", "test_system": "PRMT6", "test": "Lentiviral shRNA knock-down tested in motor-neuron cell lines", "assay_type": "cell-based", "settings": "lentiviral transduction of motor-neuron cell lines", "protocol": "Transgenes to express shRNA against PRMT6 (shPRMT6 #1, SEQ ID NO: 232 and shPRMT6 #2, SEQ ID NO: 233) and the corresponding scramble were cloned into lentiviral constructs (pLKO.1-puro).\nHEK293T cells were transfected by calcium phosphate with lentiviral vectors together with pCMV-dR8.91 (Delta 8.9) plasmids containing gag, pol, and rev genes and VSV-G envelope plasmid. At 16 hours post-transfection, medium was replaced with fresh medium, and 24 hours later it was collected, centrifuged at 1000×g for 10 minutes (to pellet and thus remove any cellular debris), filtered through 0.45-μm pores, and stored at −80° C. in aliquots. To quantify viruses, 10 μL of viral particles were lysed for 10 minutes at room temperature by adding an equal volume of 2× lysis buffer [0.25% Triton X-100, 50 mM KCl, 100 mM Tris-HCl pH 7.4, 40% glycerol, and 0.8 U/μL RNase inhibitor (RiboLock, Fermentas)]. Lysates were added to a single-step RT-PCR assay with 3.5 nM MS2 RNA (Roche) as template, 500 nM of each primer and hot-start Taq (Truestart Hotstart Taq, Fermentas), all in 20 mM Tris-Cl pH 8.3, 5 mM (NH4)2SO4, 20 mM KCl, 5 mM MgCl2, 0.1 mg/ml BSA, 1/20,000 SYBR Green I (Invitrogen, #S7563), and 200 µM dNTPs. […]", "data": [{"substance": "shPRMT6 #1: shRNA against PRMT6 in lentiviral construct pLKO.1-puro, caccggcauucugagcaucuu (CACCGGCAUUCUGAGCAUCUU)", "values": [{"measurement": "knock-down efficiency", "result": "most efficient knock-down"}]}]}
